Like-named read-outs stand apart in the source and are kept apart here. Blank lines part the entries; values can stand above or below the molecule they belong to.
What was measured:
p38α MAP kinase [1] = target: T1, p38α MAP kinase (Homo sapiens, UniProt Q16539); experiment: fluorescence polarization (FP)-based binding assay; conditions: for increase in binding affinity toward p38α MAP kinase relative to the 2-alkylsulfanylimidazole counterpart: 1 vs ML3403, 2 vs LN950; for Ki: n = 3
Procedure: (§1) 2-Alkylsulfanyl imidazoles 1 and 2 were evaluated in an enzyme-linked immunosorbent assay (ELISA) as well as in a fluorescence polarization (FP)-based assay for their ability to inhibit and bind to the p38α MAP kinase. Moreover, the ability of the novel compounds to inhibit the LPS-stimulated TNF-α release in HWB was tested. In this ex vivo assay, the efficacy of the inhibitors is determined more specifically with regard to pharmacokinetic characteristics such as cellular permeability and plasma protein binding.

CYP2C9 = target: T2, CYP2C9 (Homo sapiens, UniProt P11712); experiment: CYP inhibition (fluorimetric detection) assay; assay type: in vitro ADME; conditions: recombinant human CYP2C9, read-out: (%) inhibition of CYP 2C9
T2 construct: purchased Eurofins Panlabs Inc. (contract assay)
T2 sequence (P11712 whole entry): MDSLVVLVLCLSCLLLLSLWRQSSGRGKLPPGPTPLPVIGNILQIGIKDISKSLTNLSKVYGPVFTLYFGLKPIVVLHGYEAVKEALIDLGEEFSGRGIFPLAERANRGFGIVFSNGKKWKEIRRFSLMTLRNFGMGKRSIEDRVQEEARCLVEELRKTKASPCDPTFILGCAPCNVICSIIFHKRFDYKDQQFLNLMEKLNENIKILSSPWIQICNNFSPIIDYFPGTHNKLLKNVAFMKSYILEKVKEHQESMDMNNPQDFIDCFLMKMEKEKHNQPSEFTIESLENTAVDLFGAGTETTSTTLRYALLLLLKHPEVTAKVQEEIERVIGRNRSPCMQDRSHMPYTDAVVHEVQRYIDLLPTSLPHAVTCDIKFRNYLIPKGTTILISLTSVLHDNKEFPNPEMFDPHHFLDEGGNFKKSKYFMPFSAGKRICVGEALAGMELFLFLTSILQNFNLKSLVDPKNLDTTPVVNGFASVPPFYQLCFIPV
Procedure: (§2) CYP inhibition (fluorimetric detection) assay was performed by Eurofins Panlabs Inc. (St. Charles, MO, USA) with human recombinant CYP enzyme and the appropriate CYP substrate.

CYP2C19 = target: T3, CYP2C19 (Homo sapiens, UniProt P33261); experiment: CYP inhibition (fluorimetric detection) assay; assay type: in vitro ADME; conditions: recombinant human CYP2C19, read-out: (%) inhibition of CYP 2C19
T3 construct: purchased Eurofins Panlabs Inc. (contract assay)
T3 sequence (P33261 whole entry): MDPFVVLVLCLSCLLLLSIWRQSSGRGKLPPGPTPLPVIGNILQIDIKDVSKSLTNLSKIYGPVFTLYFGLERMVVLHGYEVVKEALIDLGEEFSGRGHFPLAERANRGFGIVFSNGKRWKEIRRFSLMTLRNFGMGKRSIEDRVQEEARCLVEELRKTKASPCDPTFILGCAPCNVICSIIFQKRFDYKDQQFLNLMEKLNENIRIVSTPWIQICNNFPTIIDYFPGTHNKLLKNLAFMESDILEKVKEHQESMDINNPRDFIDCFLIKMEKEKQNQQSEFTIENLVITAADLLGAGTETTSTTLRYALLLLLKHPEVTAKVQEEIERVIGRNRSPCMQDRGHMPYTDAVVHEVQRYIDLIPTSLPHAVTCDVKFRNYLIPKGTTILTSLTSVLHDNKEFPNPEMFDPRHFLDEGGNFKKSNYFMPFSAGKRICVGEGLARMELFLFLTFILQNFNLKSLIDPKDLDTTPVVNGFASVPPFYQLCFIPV
Procedure: as §2

CYP3A4 = target: T4, CYP3A4 (Homo sapiens, UniProt P08684); experiment: CYP inhibition (fluorimetric detection) assay; assay type: in vitro ADME; conditions: recombinant human CYP3A4, read-out: (%) inhibition of CYP 3A4
T4 construct: purchased Eurofins Panlabs Inc. (contract assay)
T4 sequence (P08684 whole entry): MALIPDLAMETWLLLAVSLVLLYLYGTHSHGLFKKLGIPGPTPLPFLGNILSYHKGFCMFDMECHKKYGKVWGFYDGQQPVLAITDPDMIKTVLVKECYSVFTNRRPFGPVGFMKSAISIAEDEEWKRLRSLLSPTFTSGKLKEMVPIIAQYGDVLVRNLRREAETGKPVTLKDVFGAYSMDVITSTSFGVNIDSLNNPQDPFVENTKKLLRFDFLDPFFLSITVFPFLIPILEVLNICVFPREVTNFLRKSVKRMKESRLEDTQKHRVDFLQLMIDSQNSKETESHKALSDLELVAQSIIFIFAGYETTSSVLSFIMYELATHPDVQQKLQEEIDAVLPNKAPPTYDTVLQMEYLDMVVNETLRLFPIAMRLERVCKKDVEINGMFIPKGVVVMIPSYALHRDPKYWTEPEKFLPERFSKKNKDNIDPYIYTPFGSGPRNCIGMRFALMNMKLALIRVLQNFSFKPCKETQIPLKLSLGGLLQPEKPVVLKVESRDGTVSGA
Procedure: as §2

CYP2D6 = target: T5, CYP2D6 (Homo sapiens, UniProt P10635); experiment: CYP inhibition (fluorimetric detection) assay; assay type: in vitro ADME; conditions: recombinant human CYP2D6, read-out: (%) inhibition of CYP 2D6
T5 construct: purchased Eurofins Panlabs Inc. (contract assay)
T5 sequence (P10635 whole entry): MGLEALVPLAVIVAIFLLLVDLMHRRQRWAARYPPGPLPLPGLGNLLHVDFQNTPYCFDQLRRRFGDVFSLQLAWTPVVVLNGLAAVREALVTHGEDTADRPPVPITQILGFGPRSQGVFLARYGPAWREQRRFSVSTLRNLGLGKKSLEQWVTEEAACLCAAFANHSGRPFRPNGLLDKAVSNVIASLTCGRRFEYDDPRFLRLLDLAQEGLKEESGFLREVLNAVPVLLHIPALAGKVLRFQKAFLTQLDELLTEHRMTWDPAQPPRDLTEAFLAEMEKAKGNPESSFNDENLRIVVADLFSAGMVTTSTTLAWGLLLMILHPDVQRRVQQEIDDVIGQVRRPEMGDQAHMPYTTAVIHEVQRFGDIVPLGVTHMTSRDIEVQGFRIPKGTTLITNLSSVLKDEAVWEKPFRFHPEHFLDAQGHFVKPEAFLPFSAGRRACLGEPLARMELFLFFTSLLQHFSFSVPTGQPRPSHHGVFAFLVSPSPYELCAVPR
Procedure: as §2

CYP1A2 = target: T6, CYP1A2 (Homo sapiens, UniProt P05177); experiment: CYP inhibition (fluorimetric detection) assay; assay type: in vitro ADME; conditions: recombinant human CYP1A2, read-out: (%) inhibition of CYP 1A2
T6 construct: purchased Eurofins Panlabs Inc. (contract assay)
T6 sequence (P05177 1-516): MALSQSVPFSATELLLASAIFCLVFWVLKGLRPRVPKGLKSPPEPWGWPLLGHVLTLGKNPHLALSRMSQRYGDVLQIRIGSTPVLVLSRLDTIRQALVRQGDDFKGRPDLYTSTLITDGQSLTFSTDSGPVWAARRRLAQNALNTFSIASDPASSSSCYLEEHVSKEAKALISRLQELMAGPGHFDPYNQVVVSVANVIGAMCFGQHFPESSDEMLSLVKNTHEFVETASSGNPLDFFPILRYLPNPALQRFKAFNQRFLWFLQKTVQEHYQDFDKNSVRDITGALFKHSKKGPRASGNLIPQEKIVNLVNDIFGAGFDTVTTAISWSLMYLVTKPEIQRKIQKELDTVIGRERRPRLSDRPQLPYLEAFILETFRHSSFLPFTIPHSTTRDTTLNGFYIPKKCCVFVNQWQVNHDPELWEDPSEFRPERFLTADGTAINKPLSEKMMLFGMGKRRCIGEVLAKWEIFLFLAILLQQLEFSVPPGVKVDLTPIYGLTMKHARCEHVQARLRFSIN
Procedure: as §2

[2] = system: LPS-stimulated TNF-α release from human whole blood; experiment: HWB assay, inhibition of LPS-stimulated TNF-α release; assay type: cell-based; conditions: n = 2
Procedure: as §1

[3] = system: CYP1A2, CYP2C9, CYP2C19, CYP2D6 and CYP3A4; experiment: CYP inhibition screening, statements on the whole panel; assay type: in vitro ADME, human; conditions: human
Procedure: as §2

[4] = HLM stability test with LC-MS metabolite screening; assay type: in vitro ADME, human; conditions: for Degradation: compound remaining, AVERAGE: HLM; for biotransformation / degradation: after 4 h of incubation with HLM; for compound present / remaining unmetabolized: after incubation time of 4 h with HLM
Procedure: Pooled human liver microsomes (adult male & female) were purchased from Merck (Schnelldorf, Germany). These microsomes were characterized in protein and CYP content. All incubations (final total volume 1050 µL) were made in the presence of an NADPH-regenerating system, consisting of 5 mM Glucose-6-phosphate, 5 U/mL Glucose-6-phosphate dehydrogenase and 1 mM NADP^+. The substrate (100 μM), the NADPH regenerating system and 4 mM MgCl2 × 6 H2O in 0.1 M Tris buffer (pH 7.4 at 37 °C) were preincubated for 5 min in an incubator at 37 °C and 750 rpm. The incubation mix was split into 50 μL aliquots and the reaction was started by addition of the HLM. Thereby the microsomal protein content was standardized to 1 mg/mL. To follow the course of metabolism, the reaction tubes were quenched at selected time points (0, 10, 20, 30, 60, 120, 180 and 240 min) by adding 100 μL internal standard at a concentration of 22.5 µM in MeCN. The samples were vortexed for 30 s and centrifuged (19,800 relative centrifugal force/4 °C/10 min). The supernatant was directly used for LC-MS analysis (for detailed LC-MS conditions, see supplementary materials). […] In all incubations, a limit of 1% organic solvent was not exceeded. […]
Screening of Metabolites by LC-MS Analysis
Metabolite formation was analyzed with an Alliance 2695 Separations Module (Waters GmbH, Eschborn). Sam ples maintained at 4°C, the column tem perature was set to 40°C and inj ection volume was 10 μL. The chromatographic separation for analytes 1 and ML3404 was performed on a Phenomenex Synergi Max-RP column (150 x 4.6 mm; 5 μm); LN950 and 2 on a Phenomenex Synergi Polar-RP column (150 x 4.6 mm; 5 μm) with a precolumn of the same material, respectively. An isocratic gradient of 8.5 min with 30% solvent A (90% H2O, 10% ACN, 0.1% formic acid) and 70% solvent B (ACN, 0.1% formic acid) at a flow rate of 400 μL/min was used for LN950. 1 and ML3404 were chromatographically separated by a binary gradient of 11.25 min with the equal solvents as mentioned before at a flow rate of 400 μL/min. The initial composition of 10% B was held for 20 sec, followed by a linear gradient up to 85% B in 5.8 min, holding for 30 sec, immediately changing to 10% B and reequilibrating at the end. The detection was performed on a Micromass Quattro micro triple quadrupole mass spectrometer (Waters GmbH, Eschborn) using the electrospray-ionization in the positive-mode. Correspondent to the analyte the spray voltage was set to 3.0-4.0 kV. The heated capillary o perated at 250°C and the desolvation gas flow worked at 500 L/h.

p38α MAP kinase [5] = target: T1, p38α MAP kinase; experiment: ELISA assay, inhibition of p38α MAP kinase; assay type: biochemical; conditions: for IC50: n = 3
Procedure: as §1

p38α MAP kinase [6] = target: T1, p38α MAP kinase; conditions: read-out: FP Assay p38α Ki; cited from earlier work
[7] = system: LPS-stimulated TNF-α release from human whole blood; conditions: cited from earlier work
[8] = male and female human liver microsomes; cited from earlier work
[9] = mouse liver microsomes; cited from earlier work
[10] = rat liver microsomes; cited from earlier work
p38α MAP kinase [11] = target: T1, p38α MAP kinase; conditions: metabolite of ML3403; cited from earlier work
[12] = system: CYP isoforms 1A2, 2C9, 2C19, 2D6 and 3A4; experiment: CYP inhibition screening, statements on the whole panel; assay type: in vitro ADME, human
Procedure: as §2

T1 sequence (Q16539 whole entry): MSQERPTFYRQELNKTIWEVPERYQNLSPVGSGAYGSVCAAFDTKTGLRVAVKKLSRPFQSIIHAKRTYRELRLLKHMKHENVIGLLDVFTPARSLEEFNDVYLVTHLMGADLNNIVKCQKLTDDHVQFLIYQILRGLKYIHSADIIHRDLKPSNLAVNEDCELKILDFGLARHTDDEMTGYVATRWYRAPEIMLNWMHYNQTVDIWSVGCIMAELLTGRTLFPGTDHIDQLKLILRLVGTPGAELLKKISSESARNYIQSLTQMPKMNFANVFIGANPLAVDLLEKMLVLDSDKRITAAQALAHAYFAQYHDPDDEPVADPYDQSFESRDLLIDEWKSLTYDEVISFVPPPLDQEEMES

SMILES: CC(C)C(C)Nc1cc(-c2nc(SCCO)[nH]c2-c2ccc(F)cc2)ccn1 (stereo not shown) [LN950, 2-((5-(4-fluorophenyl)-4-(2-((3-methylbutan-2-yl)amino)pyridin-4-yl)-1H-imidazol-2-yl)thio)ethan-1-ol, reference compound]
inhibition at 10 µM (CYP2C9): 91.5%
inhibition at 10 µM (CYP2C19): 63%
inhibition at 10 µM (CYP3A4): 61%
inhibition at 10 µM (CYP2D6): 41.5%
inhibition at 10 µM (CYP1A2): 28%
Ki (p38α MAP kinase [6]): 4 ± 1 nM
Degradation: compound remaining, AVERAGE ([4]; 0 min): 100.00%
Degradation: compound remaining, AVERAGE ([4]; 10 min): 86.86%
Degradation: compound remaining, AVERAGE ([4]; 20 min): 77.42%
Degradation: compound remaining, AVERAGE ([4]; 30 min): 61.96%
Degradation: compound remaining, AVERAGE ([4]; 60 min): 51.99%
Degradation: compound remaining, AVERAGE ([4]; 120 min): 37.23%
Degradation: compound remaining, AVERAGE ([4]; 180 min): 32.10%
Degradation: compound remaining, AVERAGE ([4]; 240 min): 28.49%
biotransformation / degradation [4]: > 70%
IC50 ([7]; LPS-stimulated human whole blood, read-out: HWB Assay TNF-α IC50): 37 ± 4 nM

SMILES: CC(Nc1cc(-c2nc([S+](C)[O-])[nH]c2-c2ccc(F)cc2)ccn1)c1ccccc1 (stereo not shown) [ML3603]
activity on p38α MAP kinase (p38α MAP kinase [11]): active

SMILES: CC(C)C(C)Nc1cc(-c2[nH]c(CCCO)nc2-c2ccc(F)cc2)ccn1 (stereo not shown) [compound 2, 3-(4-(4-Fluorophenyl)-5-(2-((3-methylbutan-2-yl)amino)pyridin-4-yl)-1H-imidazol-2-yl)propan-1-ol]
increase in binding affinity toward p38α MAP kinase relative to the 2-alkylsulfanylimidazole counterpart (p38α MAP kinase [1]): 4 fold
Ki (p38α MAP kinase [1]): 1 ± 0.2 nM
inhibition at 10 µM (CYP2C9): 61.9%
inhibition at 10 µM (CYP2C19): 83.6%
inhibition at 10 µM (CYP3A4): 92.1%
inhibition at 10 µM (CYP2D6): 78.8%
inhibition at 10 µM (CYP1A2): 69.4%
IC50 [2]: 32 ± 1 nM
inhibition at 10 µM [3]: > 60%
CYP test concentration of 10 µM relative to the IC50 value in the kinase activity assay [12]: ~1000 fold
Degradation: compound remaining, AVERAGE ([4]; 0 min): 100.00%
Degradation: compound remaining, AVERAGE ([4]; 10 min): 97.15%
Degradation: compound remaining, AVERAGE ([4]; 20 min): 93.57%
Degradation: compound remaining, AVERAGE ([4]; 30 min): 91.84%
Degradation: compound remaining, AVERAGE ([4]; 60 min): 91.99%
Degradation: compound remaining, AVERAGE ([4]; 120 min): 91.57%
Degradation: compound remaining, AVERAGE ([4]; 180 min): 90.42%
Degradation: compound remaining, AVERAGE ([4]; 240 min): 89.73%
biotransformation / degradation [4]: 10%
IC50 (p38α MAP kinase [5]): 11 ± 5 nM
more active than reference compound ML3403 (p38α MAP kinase [5]; p38α MAP kinase): 3.6 fold

More lines, main results first:

increase in binding affinity toward p38α MAP kinase relative to the 2-alkylsulfanylimidazole counterpart (p38α MAP kinase [1]): 4 fold
Ki (p38α MAP kinase [1]): 11 ± 3 nM
inhibition at 10 µM (CYP2C9): 85.1%
inhibition at 10 µM (CYP2C19): 71%
inhibition at 10 µM (CYP3A4): 97.6%
inhibition at 10 µM (CYP2D6): 90.2%
inhibition at 10 µM (CYP1A2): 85.6%
IC50 [2]: 2539 ± 20 nM
inhibition at 10 µM [3]: > 70%
Degradation: compound remaining, AVERAGE ([4]; 0 min): 100.00%
Degradation: compound remaining, AVERAGE ([4]; 10 min): 92.72%
Degradation: compound remaining, AVERAGE ([4]; 20 min): 89.75%
Degradation: compound remaining, AVERAGE ([4]; 30 min): 87.96%
Degradation: compound remaining, AVERAGE ([4]; 60 min): 86.27%
Degradation: compound remaining, AVERAGE ([4]; 120 min): 83.65%
Degradation: compound remaining, AVERAGE ([4]; 180 min): 80.90%
Degradation: compound remaining, AVERAGE ([4]; 240 min): 79.75%
biotransformation / degradation [4]: 20%
compound present / remaining unmetabolized [4]: up to 80%
IC50 (p38α MAP kinase [5]): 25 ± 2 nM
SMILES: CCc1nc(-c2ccc(F)cc2)c(-c2ccnc(NC(C)c3ccccc3)c2)[nH]1 (stereo not shown) [compound 1, 4-(2-Ethyl-4-(4-fluorophenyl)-1H-imidazol-5-yl)-N-(1-phenylethyl)pyridin-2-amine]

IC50 [2]: 2980 ± 874 nM
Degradation: compound remaining, AVERAGE ([4]; 0 min): 100.00%
Degradation: compound remaining, AVERAGE ([4]; 10 min): 80.59%
Degradation: compound remaining, AVERAGE ([4]; 20 min): 68.97%
Degradation: compound remaining, AVERAGE ([4]; 30 min): 57.93%
Degradation: compound remaining, AVERAGE ([4]; 60 min): 42.80%
Degradation: compound remaining, AVERAGE ([4]; 120 min): 31.72%
Degradation: compound remaining, AVERAGE ([4]; 180 min): 24.06%
Degradation: compound remaining, AVERAGE ([4]; 240 min): 16.25%
compound present / remaining unmetabolized [4]: less than 20%
half-life at 100 µM ([4]; both sexes, human, pooled human liver microsomes, pH 7.4, pooled HLM, this study, read-out: in vitro half-life (converted)): 51.6 min
SMILES: CSc1nc(-c2ccnc(NC(C)c3ccccc3)c2)c(-c2ccc(F)cc2)[nH]1 (stereo not shown) [ML3403, 4-(5-(4-fluorophenyl)-2-(methylthio)-1H-imidazol-4-yl)-N-(1-phenylethyl)pyridin-2-amine, reference compound]
in vitro half-life [8]: 32.7 min
in vitro half-life [9]: 5.9 min
in vitro half-life [10]: 11.4 min
IC50 ([7]; printed in Figure 1, known inhibitors, read-out: IC50 (TNF-α)): 2700 nM
